Numbers after ± are expanded uncertainties.
What was measured:
[1] = Crystal; DTA
[2] = Molar enthalpy of transition or fusion; conditions: Crystal; DSC
[3] = molar heat capacity at constant pressure; conditions: 101.33 kPa, Crystal, Large sample (1 g) DSC

NC(=NO)c1nonc1N [4-amino-3-furazancarboxamidoxime]
Conditions	Molar enthalpy of transition or fusion [kcal/mol]	Normal melting temperature [°C]
[1]	–	180.41 ± 0.86
[2]	8.99 ± 0.213	–

[3]
Conditions	molar heat capacity at constant pressure [J/K/mol]
283.15 K	173.37 ± 3.5
288.15 K	175.71 ± 3.5
293.15 K	178.06 ± 3.6
298.15 K	180.4 ± 3.6
303.15 K	182.75 ± 3.7
308.15 K	185.1 ± 3.7
313.15 K	187.44 ± 3.8
318.15 K	189.79 ± 3.8
323.15 K	192.13 ± 3.8
328.15 K	194.48 ± 3.9
333.15 K	196.83 ± 3.9
338.15 K	199.17 ± 4
343.15 K	201.52 ± 4
348.15 K	203.86 ± 4.1
353.15 K	206.21 ± 4.1

From the NIST ThermoML archive (doi:10.1016/j.jct.2015.06.020)
